Values belong to the compound of their own block, whether it stands above or below them.
Legend:
Format in all cases: cell-based
[1] = target: T1, FKBP1A (FKBP12)-calcineurin PPP3CA interaction (Homo sapiens, UniProt P62942); experiment: MAPPIT-derivative assay, FKBP1A bait receptor fusion (pSEL-FKBP1A) with gp130 fusion of calcineurin PPP3CA catalytic subunit; settings: dose-response; without or with co-expression of PPP3R2 regulatory subunit
T1 construct: expressed in transfected cells; host or cells: HEK293T
Protocol: (§1) Luciferase activity was measured 24 hours after test compound treatment using the Luciferase Assay System kit (PROMEGA, Madison, Wis.) with an Ensight plate reader (PERKIN ELMER LIFE SCIENCES, Waltham, Mass.). […] Error bars represent standard deviations. Curves were fit using 4-parameter nonlinear regression in […] PRISM software.

[2] = target: T2, FKBP1A (FKBP12)-MTOR (FRB domain) interaction (Homo sapiens, UniProt P62942); experiment: MAPPIT-derivative assay, FKBP1A bait receptor fusion (pSEL-FKBP1A) with gp130-MTOR (FRB domain); settings: dose-response, HEK293T, EPO-stimulated
T2 construct: expressed in transfected cells; host or cells: HEK293T
Protocol: as §1
Luciferase activity was measured 24 hours after test compound treatment using the Luciferase Assay System kit (PROMEGA, Madison, Wis.) with an Ensight plate reader (PERKIN ELMER LIFE SCIENCES, Waltham, Mass.). […] Error bars represent standard deviations.

[3] = target: T3, CRBN with proteins of a human ORF(eome) cDNA library (Homo sapiens, UniProt Q96SW2); experiment: MAPPIT-derivative cell microarray screen of a human ORF(eome) cDNA library with CRBN bait (pSEL-CRBN); settings: CC-220 10 μM; four ORF cDNAs confirmed in dose-response
T3 construct: expressed in transfected cells; host or cells: HEK293T
Protocol: In order to identify ligand-induced CRBN substrates, or neosubstrates, a MAPPIT cell microarray screen was performed using the procedure described in Lievens, et al. “Proteome-scale binary interactomics in human cells.” Molecular & Cellular Proteomics 15.12 (2016): 3624-3639. […] These transfected cells were then added to microarray screening plates containing a prey gp130 fusion expression plasmid collection covering over 15,000 ORFs. Each spot in the microarray contained a different gp130-ORF fusion expression plasmid, as well as a STAT3-responsive fluorescence protein-encoding reporter plasmid. CRBN bait transfected cells landing and attaching on these spots therefore become transfected as well with the gp130-ORF prey plasmid and the reporter plasmid, resulting in a different CRBN-ORF combination being tested in the cells on every different microarray spot. Twenty-four hours after transfection cells were differentially stimulated with erythropoietin with and without the CRBN ligand CC-220 (10 μM), and reporter signal (GFP-like fluorescence reporter) was read out 48 hours later.

CRBN-GSPT1 interaction = target: T4, CRBN-GSPT1 interaction (Homo sapiens, UniProt Q96SW2); experiment: MAPPIT-derivative assay, CRBN bait receptor fusion (pSEL-CRBN) with gp130-GSPT1 (domain 2+3), luciferase reporter in HEK293T cells; settings: dose-response, EPO-stimulated, 24 hours compound treatment
T4 construct: expressed in transfected cells; host or cells: HEK293T
Source text: (§2) In order to identify ligand-induced CRBN substrates, or neosubstrates, here we use a derivative of the MAPPIT assay, applying the procedure described in Lemmens, et al. “MAPPIT, a mammalian two-hybrid method for in-cell detection of protein-protein interactions,” Methods Mol Biol. 2015; 1278:447-55. The traditional MAPPIT assay has been used to monitor protein-protein interactions. A bait protein (protein A) is expressed as a fusion protein in which it is genetically fused to an engineered intracellular receptor domain of the leptin receptor, which is itself fused to the extracellular domain of the erythropoietin (Epo) receptor. […] Activation of STAT3 can be monitored by introduction of a STAT3-responsive reporter gene, including a luciferase-encoding gene or a gene encoding a fluorescent marker such as GFP or some other type of Fluorescent Protein (EGFP, etc.). […]
(§3) In this Example 1, we used a derivative of the MAPPIT assay that we developed specifically for use in determining CRBN-ligand induced protein interactions, i.e. using a specific CRBN bait protein and assaying for ligand-dependent induction of protein complex formation. The CRBN bait protein is expressed as a fusion with the MAPPIT chimeric membrane receptor and the interacting target protein is fused with the cytoplasmic gp130 receptor fragment (gp130-IKZF1(isoform 7), gp130-target X, gp130-GSPT1(domain 2+3) or gp130-GSPT2). […]

CRBN-GSPT2 interaction = target: T5, CRBN-GSPT2 interaction (Homo sapiens, UniProt Q96SW2); experiment: MAPPIT-derivative assay, CRBN bait receptor fusion (pSEL-CRBN) with gp130-GSPT2, luciferase reporter in HEK293T cells; settings: dose-response, EPO-stimulated, 24 hours compound treatment
T5 construct: expressed in transfected cells; host or cells: HEK293T
Source text: as §2, §3

T1 sequence (P62942 whole entry, other chains not shown, the tested form may be a part): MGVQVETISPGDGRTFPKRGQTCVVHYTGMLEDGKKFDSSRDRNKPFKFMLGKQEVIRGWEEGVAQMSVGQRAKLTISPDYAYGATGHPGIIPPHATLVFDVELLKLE
T1 sequence (Q96LZ3 whole entry partner, other chains not shown, the tested form may be a part): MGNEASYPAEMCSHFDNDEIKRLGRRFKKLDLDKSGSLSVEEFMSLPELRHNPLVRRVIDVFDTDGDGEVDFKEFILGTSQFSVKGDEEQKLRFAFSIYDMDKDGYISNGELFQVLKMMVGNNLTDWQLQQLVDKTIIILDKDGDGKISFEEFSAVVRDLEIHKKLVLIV
T2 sequence (P62942 whole entry, the tested form may be a part): as the sequence (P62942 whole entry, other chains not shown, the tested form may be a part) above
T2 sequence (P42345 2012-2144 partner limits assumed): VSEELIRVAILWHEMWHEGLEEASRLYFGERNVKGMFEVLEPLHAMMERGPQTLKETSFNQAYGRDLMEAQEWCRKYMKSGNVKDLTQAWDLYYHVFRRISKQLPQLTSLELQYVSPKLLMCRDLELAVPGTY
T3 sequence (Q96SW2 whole entry): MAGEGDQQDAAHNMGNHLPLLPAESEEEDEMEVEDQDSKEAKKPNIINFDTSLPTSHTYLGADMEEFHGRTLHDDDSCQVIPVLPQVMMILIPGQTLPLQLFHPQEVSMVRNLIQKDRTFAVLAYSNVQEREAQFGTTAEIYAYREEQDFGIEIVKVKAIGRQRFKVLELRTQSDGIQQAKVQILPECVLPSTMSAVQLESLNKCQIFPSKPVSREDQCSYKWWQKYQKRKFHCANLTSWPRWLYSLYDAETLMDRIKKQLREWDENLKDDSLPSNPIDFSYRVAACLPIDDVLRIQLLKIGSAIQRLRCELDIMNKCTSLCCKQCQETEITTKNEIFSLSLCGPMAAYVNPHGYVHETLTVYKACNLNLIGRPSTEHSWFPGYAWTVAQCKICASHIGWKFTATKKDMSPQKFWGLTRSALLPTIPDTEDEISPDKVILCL
T3 sequence (Q16531 whole entry partner): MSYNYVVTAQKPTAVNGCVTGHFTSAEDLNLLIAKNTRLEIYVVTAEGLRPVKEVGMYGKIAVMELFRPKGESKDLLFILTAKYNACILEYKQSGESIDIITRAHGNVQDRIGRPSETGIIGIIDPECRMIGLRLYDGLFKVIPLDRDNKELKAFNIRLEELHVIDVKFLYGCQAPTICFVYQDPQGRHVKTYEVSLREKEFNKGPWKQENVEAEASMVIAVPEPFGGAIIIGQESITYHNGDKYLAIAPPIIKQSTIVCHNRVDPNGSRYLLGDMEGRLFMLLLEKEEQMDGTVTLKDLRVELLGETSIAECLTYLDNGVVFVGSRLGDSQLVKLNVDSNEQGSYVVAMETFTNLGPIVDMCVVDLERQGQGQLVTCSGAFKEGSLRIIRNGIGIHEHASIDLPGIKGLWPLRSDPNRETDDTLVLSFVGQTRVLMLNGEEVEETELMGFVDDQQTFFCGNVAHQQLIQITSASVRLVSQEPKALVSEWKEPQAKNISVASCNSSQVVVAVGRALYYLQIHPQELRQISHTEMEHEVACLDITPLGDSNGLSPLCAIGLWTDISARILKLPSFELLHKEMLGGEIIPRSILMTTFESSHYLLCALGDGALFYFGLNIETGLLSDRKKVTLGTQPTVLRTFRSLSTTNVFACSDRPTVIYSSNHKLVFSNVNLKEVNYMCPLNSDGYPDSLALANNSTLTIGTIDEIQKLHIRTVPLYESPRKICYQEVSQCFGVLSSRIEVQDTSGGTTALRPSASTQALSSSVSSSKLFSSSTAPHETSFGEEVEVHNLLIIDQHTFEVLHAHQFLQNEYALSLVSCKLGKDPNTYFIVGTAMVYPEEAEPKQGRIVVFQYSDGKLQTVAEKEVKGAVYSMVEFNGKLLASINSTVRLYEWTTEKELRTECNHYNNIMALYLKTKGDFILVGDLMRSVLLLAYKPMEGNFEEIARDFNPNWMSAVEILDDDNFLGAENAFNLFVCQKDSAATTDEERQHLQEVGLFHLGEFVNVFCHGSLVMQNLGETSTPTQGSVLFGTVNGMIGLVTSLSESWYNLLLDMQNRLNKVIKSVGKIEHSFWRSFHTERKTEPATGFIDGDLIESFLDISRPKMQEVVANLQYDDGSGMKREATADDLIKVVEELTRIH
T5 sequence (Q96SW2 whole entry, the tested form may be a part): as the sequence (Q96SW2 whole entry) above
T5 sequence (Q8IYD1 whole entry partner, the tested form may be a part): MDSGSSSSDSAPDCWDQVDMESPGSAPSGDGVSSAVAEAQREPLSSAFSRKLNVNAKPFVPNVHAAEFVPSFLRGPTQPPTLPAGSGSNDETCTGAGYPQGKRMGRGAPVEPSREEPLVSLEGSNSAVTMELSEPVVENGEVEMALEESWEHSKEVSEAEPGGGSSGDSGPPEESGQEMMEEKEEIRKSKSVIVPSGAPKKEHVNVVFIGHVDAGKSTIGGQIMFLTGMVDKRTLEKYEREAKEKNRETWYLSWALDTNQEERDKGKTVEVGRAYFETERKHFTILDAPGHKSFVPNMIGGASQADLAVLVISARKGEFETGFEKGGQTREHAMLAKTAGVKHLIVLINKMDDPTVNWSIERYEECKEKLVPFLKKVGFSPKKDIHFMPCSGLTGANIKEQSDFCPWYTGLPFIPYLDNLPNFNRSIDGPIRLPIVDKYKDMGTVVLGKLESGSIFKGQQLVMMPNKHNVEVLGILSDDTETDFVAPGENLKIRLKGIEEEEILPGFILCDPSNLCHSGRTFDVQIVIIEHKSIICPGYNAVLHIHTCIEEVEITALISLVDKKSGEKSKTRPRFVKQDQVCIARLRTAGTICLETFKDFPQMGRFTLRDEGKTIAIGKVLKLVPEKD
T5 sequence (Q16531 whole entry partner, the tested form may be a part): as the sequence (Q16531 whole entry partner) above
T4 sequence (Q96SW2 whole entry, the tested form may be a part): as the sequence (Q96SW2 whole entry) above
T4 sequence (P15170 299-495 partner limits assumed): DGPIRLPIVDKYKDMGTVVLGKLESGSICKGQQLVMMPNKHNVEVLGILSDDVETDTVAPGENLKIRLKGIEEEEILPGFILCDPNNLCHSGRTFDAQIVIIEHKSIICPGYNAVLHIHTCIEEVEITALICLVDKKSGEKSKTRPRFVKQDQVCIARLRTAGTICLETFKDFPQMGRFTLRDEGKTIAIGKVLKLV
T4 sequence (Q16531 whole entry partner, the tested form may be a part): as the sequence (Q16531 whole entry partner) above

Structure (SMILES): CO[C@H]1C[C@@H]2CC[C@@H](C)[C@@](O)(O2)C(=O)C(=O)N2CCCC[C@H]2C(=O)O[C@H]([C@H](C)C[C@@H]2CC[C@@H](OCCO)[C@H](OC)C2)CC(=O)[C@H](C)/C=C(\C)[C@@H](O)[C@@H](OC)C(=O)[C@H](C)C[C@H](C)/C=C/C=C/C=C/1C [everolimus]
compound-induced recruitment of MTOR to FKBP1A (reporter signal) [2]: compound-induced recruitment of MTOR is detected

Structure (SMILES): O=C1CC[C@H](N2Cc3c(OCc4ccc(CN5CCOCC5)cc4)cccc3C2=O)C(=O)N1 [CC-220]
fluorescence reporter signal, ORF proteins recruited to CRBN [3]: significant induction of signal is observed for a number of ORF cDNAs

Structure (SMILES): Cc1ccc(NC(=O)NCc2ccc3c(c2)CN(C2CCC(=O)NC2=O)C3=O)cc1Cl (stereo not drawn) [CC-885]
compound-induced recruitment of GSPT1 to CRBN (reporter signal) (CRBN-GSPT1 interaction): only recruited through CC-885
compound-induced recruitment of GSPT2 to CRBN (reporter signal) (CRBN-GSPT2 interaction): only recruited through CC-885

Other lines, results leading:

compound-dependent binding of PPP3CA to FKBP1A (reporter signal) [1]: binding of PPP3CA can be monitored
Structure (SMILES): C=CC[C@@H]1/C=C(\C)C[C@H](C)C[C@H](OC)[C@H]2O[C@@](O)(C(=O)C(=O)N3CCCC[C@H]3C(=O)O[C@H](/C(C)=C/[C@@H]3CC[C@@H](O)[C@H](OC)C3)[C@H](C)[C@@H](O)CC1=O)[C@H](C)C[C@@H]2OC [FK506, tacrolimus]

compound-dependent binding of PPP3CA to FKBP1A (reporter signal) [1]: binding of PPP3CA can be monitored
Structure (SMILES): CC[C@@H]1/C=C(\C)C[C@H](C)C[C@H](OC)[C@H]2O[C@@](O)(C(=O)C(=O)N3CCCC[C@H]3C(=O)O[C@H](/C(C)=C/[C@@H]3CC[C@H](Cl)[C@H](OC)C3)[C@H](C)[C@@H](O)CC1=O)[C@H](C)C[C@@H]2OC [pimecrolimus]
